# In patent US6887847B2, “Virus derived antimicrobial peptides” (University of Pittsburgh, priority 2001, dated 2005):
# Where two headings read alike, the source gives them in different places. Residues, ends and D or L forms follow the SMILES beside them.
# Experiments:
# Staphylococcus aureus [1] = assay: Bacterial lysis (broth dilution) assay, MBC; format: cell-based
# Text: (§1) The assays for growth inhibition of a microbial target can be used to derive a minimum bactericidal concentration (MBC) value for the peptide, i.e., the concentration of peptide required to kill 99.9% of the microbial sample being tested. This value is well known to those in the art as representative of the effectiveness of a particular antimicrobial agent (e.g., an antibiotic) against a particular organism or group of organisms. In assays to detect the MBC of a peptide, growth inhibition of a bacterial population also can be measured with reference to the number of colony forming units (cfu) after exposure to a peptide relative to a control experiment without a peptide.
# (§2) Bacterial lysis assay. Bacterial lysis assays were conducted in a manner similar to that described previously (Lehrer, R. I., M. E. Selsted, D. Szklarek, and F. J. 1983. Infect. Immun. 42: 10-4, 1983; Miller, M. A., R. F. Garry, J. M. Jaynes, and R. C. Montelaro, AIDS Res Hum Retroviruses 7: 511-519, 1991). Bacterial suspensions were cultured in Luria-Bertani Broth to mid-log growth phase and washed by two cycles of centrifugation and suspension in 10 mM phosphate buffer. The Abs600 of the suspension was adjusted with 10 mM phosphate buffer such that, upon dilution, 5-10×10^5 cfu/mL would be treated in the assay. Bacteria were incubated for 1 h with two-fold dilutions of peptides (100 μM to 100 nM) in 96-well plates using 10 mM phosphate buffer, pH 7.2, as a diluent. Ten-fold dilutions of bacteria were performed to 1:1000; a 100 μl aliquot from each condition was spread on the surface of tryptic soy agar plates (Difco, Detroit, Mich.) which were incubated overnight. Colonies of surviving bacteria (cfu, colony-forming units) were counted and compared to untreated controls to determine the amount of peptide-induced killing under each condition. Log killing is defined as the log of the ratio of cfu present before and after treatment with peptide. The minimal bactericidal concentration, MBC, is the peptide concentration at which 99.9% (three log) killing is achieved (Pearson et al., Antimicrob. Agents Chemother. 18: 699-708, 1980).
# (§3) A limitation of many host-derived antimicrobial peptides is their decreased activity at physiologic (150 mM) NaCl concentration. See Friedrich et al., Antimicrobial Agents and Chemotherapy 43:1542-1548. The peptides WLSA-5 (SEQ ID NO:3) and LL37 were tested against the two index strains at physiologic NaCl. […] The activity of eLLPs and LBUs of this invention were compared to an expanded list of clinical bacterial isolates. These are summarized in Table 2 by comparing their MBCs in phosphate buffer alone (low salt) and phosphate buffer containing 150 mM NaCl (physiologic conditions). Inspection of this table would lead one skilled in the art to conclude that the activity of eLLPs and LBUs compare favorably to the host derived antimicrobial peptides as it relates to the spectrum and potency of antimicrobial activity.
# [2] = tested on: differentiated primary human airway epithelial cells; assay: Cystic fibrosis cell culture model: transepithelial resistance; format: cell-based; conditions: compared with LL-37
# Method: Preparation of eukaryotic cells. Differentiated primary cell cultures of human bronchial epithelial (HBE) cells (CF and non-CF) on an air-liquid interface were prepared in antibiotic free media. See Zabner, J. et al., 1996, J Virol. 70:6994-7003. These filters were incubated with P. aeruginosa followed by washing to remove non-adherent bacteria. Individual filters were next exposed to peptide at increasing concentrations. In order to release viable bacteria, trypsin/EDTA was added and these preparations were plated on standard bacteriologic media to quantify bacterial survival. Similarly prepared cells were monitored for peptide toxicity by measuring transepithelial resistance. The advantage of this model is that it can measure the selective toxicity of peptide for bacterium versus host cells under identical conditions.
# Based on above in vitro findings, WLSA-5 (SEQ ID NO:3) was tested in a scenario that more accurately assessed its selective toxicity. For this assay, a cell culture model of bacterial adherence was established that utilized differentiated primary human airway epithelial cells. […] The ability of peptide to kill bacteria is monitored as a function of viable bacteria associated with the epithelial cells after peptide exposure. […]
# [3] = tested on: Methicillin Resistant S. aureus; format: cell-based, Staphylococcus aureus; conditions: 0 mM NaCl (phosphate buffer, low salt)
# Text: as §1
# Bacterial lysis assay. Bacterial lysis assays were conducted in a manner similar to that described previously (Lehrer, R. I., M. E. Selsted, D. Szklarek, and F. J. 1983. Infect. Immun. 42: 10-4, 1983; Miller, M. A., R. F. Garry, J. M. Jaynes, and R. C. Montelaro, AIDS Res Hum Retroviruses 7: 511-519, 1991). Bacterial suspensions were cultured in Luria-Bertani Broth to mid-log growth phase and washed by two cycles of centrifugation and suspension in 10 mM phosphate buffer. […] Colonies of surviving bacteria (cfu, colony-forming units) were counted and compared to untreated controls to determine the amount of peptide-induced killing under each condition. […]
# Pseudomonas aeruginosa = format: cell-based
# Text: as §1, §2, §3
# [4] = Rabbit joint model of septic arthritis; format: in vivo, New Zealand white rabbit; conditions: peptide administered alone, all animal experiments
# Text: We have extended these findings to a septic arthritis animal model. In this study joint sepsis was induced by inoculating one knee of a 2.5 Kg New Zealand white rabbit with 1×10^5 colony forming units of a clinical S. aureus isolate, a strain resistant to penicillin but sensitive to methicillin, cephalosporins, and clindamycin. Using this model, symptoms of septic arthritis (e.g., degradation of the synovium) were monitored and the ability of antimicrobial agents to limit the degeneration of the joint post-infection can be assessed. In this application the bacterial infection is allowed to establish for 1 h. At this point the joint was accessed and increasing concentrations of LSA-5 (SEQ ID NO:2) (0, 50, 100, and 200 μM) in phosphate buffer (PB) was administered intraarticularly. The concentration of bacteria associated with joint fluid was established at time 0 and 1 h post LSA-5 (SEQ ID NO:2) instillation by plating dilutions of the synovial fluid on LB agar.
# This was compared with multiple injections of a standard 0.35% neomycin or a combination of neomycin and LSA-5 (SEQ ID NO:2). Administration of each of these formulations was performed intraarticularly at time 0,1, and 2 h.
# [5] = tested on: diverse gram-negative and -positive bacterial isolates; conditions: cited from earlier work
# Staphylococcus aureus [6] = conditions: 1×10^5 colony-forming units; cited from earlier work
# [7] = molecular target: Ca^2+-saturated calmodulin (Homo sapiens, UniProt P0DP23); conditions: host cell Ca^2+-saturated calmodulin; cited from earlier work
# [8] = 0 mM NaCl (phosphate buffer, low salt)
SMILES,MBC (Staphylococcus aureus [1]; [8]) [nM],MBC (Staphylococcus aureus [1]; 150 mM NaCl (physiologic)) [nM],effect on transepithelial resistance [2],MBC [3] [nM],MBC (Pseudomonas aeruginosa; [8]) [nM],MBC (Pseudomonas aeruginosa; 150 mM NaCl (physiologic)) [nM],adverse toxicity [4],antibacterial activity compared with magainin-2 [5],time to nearly sterilize suspension (Staphylococcus aureus [6]) [s],calmodulin binding affinity [7]
CC[C@H](C)[C@H](NC(=O)[C@H](C)NC(=O)[C@H](CCCNC(=N)N)NC(=O)[C@H](CS)NC(=O)[C@H](Cc1c[nH]c2ccccc12)NC(=O)[C@H](CCCNC(=N)N)NC(=O)[C@H](CCC(N)=O)NC(=O)[C@@H](NC(=O)[C@@H](NC(=O)[C@H](CCCNC(=N)N)NC(=O)[C@@H](NC(=O)[C@H](Cc1c[nH]c2ccccc12)NC(=O)[C@@H](N)CCCNC(=N)N)[C@@H](C)CC)C(C)C)C(C)C)C(=O)N[C@@H](CCCNC(=N)N)C(=O)N[C@@H](Cc1c[nH]cn1)C(=O)N[C@H](C(=O)N[C@@H](Cc1c[nH]c2ccccc12)C(=O)N[C@@H](CCCNC(=N)N)C(=O)N[C@@H](CCCNC(=N)N)C(=O)N[C@H](C(=O)N[C@@H](CCCNC(=N)N)C(=O)N[C@@H](CCC(N)=O)C(=O)NCC(=O)N[C@@H](CC(C)C)C(=O)N[C@@H](CCCNC(=N)N)C(=O)N[C@@H](CCCNC(=N)N)C(=O)N[C@@H](Cc1c[nH]c2ccccc12)C(=O)N[C@@H](CC(C)C)C(=O)N[C@@H](CCCNC(=N)N)C(=O)N[C@H](C(=O)N[C@H](C(=O)O)C(C)C)C(C)C)[C@@H](C)CC)[C@@H](C)CC [WLSA-5] (H-RWIRVVQRWCRAIRHIWRRIRQGLRRWLRVV-OH),1000,1000,transient and not significantly different from LL-37,150,1000,1000,–,–,–,–
CC[C@H](C)[C@H](NC(=O)[C@H](C)NC(=O)[C@H](CCCNC(=N)N)NC(=O)[C@H](CS)NC(=O)[C@H](C)NC(=O)[C@H](CCCNC(=N)N)NC(=O)[C@H](CCC(N)=O)NC(=O)[C@@H](NC(=O)[C@@H](NC(=O)[C@H](CCCNC(=N)N)NC(=O)[C@@H](NC(=O)[C@@H](NC(=O)[C@@H](N)CCCNC(=N)N)C(C)C)[C@@H](C)CC)C(C)C)C(C)C)C(=O)N[C@@H](CCCNC(=N)N)C(=O)N[C@@H](Cc1c[nH]cn1)C(=O)N[C@H](C(=O)N[C@H](C(=O)N[C@@H](CCCNC(=N)N)C(=O)N[C@@H](CCCNC(=N)N)C(=O)N[C@H](C(=O)N[C@@H](CCCNC(=N)N)C(=O)N[C@@H](CCC(N)=O)C(=O)NCC(=O)N[C@@H](CC(C)C)C(=O)N[C@@H](CCCNC(=N)N)C(=O)N[C@@H](CCCNC(=N)N)C(=O)N[C@H](C(=O)N[C@@H](CC(C)C)C(=O)O)[C@@H](C)CC)[C@@H](C)CC)C(C)C)[C@@H](C)CC [SA-5] (H-RVIRVVQRACRAIRHIVRRIRQGLRRIL-OH; N-terminus and C-terminus assumed),1000,–,–,–,1000,1000,–,–,–,–
CC[C@H](C)[C@H](NC(=O)[C@H](C)NC(=O)[C@H](CCCNC(=N)N)NC(=O)[C@H](CS)NC(=O)[C@H](C)NC(=O)[C@H](CCCNC(=N)N)NC(=O)[C@H](CCC(N)=O)NC(=O)[C@@H](NC(=O)[C@@H](NC(=O)[C@H](CCCNC(=N)N)NC(=O)[C@@H](NC(=O)[C@@H](NC(=O)[C@@H](N)CCCNC(=N)N)C(C)C)[C@@H](C)CC)C(C)C)C(C)C)C(=O)N[C@@H](CCCNC(=N)N)C(=O)N[C@@H](Cc1c[nH]cn1)C(=O)N[C@H](C(=O)N[C@H](C(=O)N[C@@H](CCCNC(=N)N)C(=O)N[C@@H](CCCNC(=N)N)C(=O)N[C@H](C(=O)N[C@@H](CCCNC(=N)N)C(=O)N[C@@H](CCC(N)=O)C(=O)NCC(=O)N[C@@H](CC(C)C)C(=O)N[C@@H](CCCNC(=N)N)C(=O)N[C@@H](CCCNC(=N)N)C(=O)N[C@H](C(=O)N[C@@H](CC(C)C)C(=O)N[C@@H](CCCNC(=N)N)C(=O)N[C@H](C(=O)N[C@H](C(=O)O)C(C)C)C(C)C)[C@@H](C)CC)[C@@H](C)CC)C(C)C)[C@@H](C)CC [LSA-5] (H-RVIRVVQRACRAIRHIVRRIRQGLRRILRVV-OH),1000,1000,–,150,800,800,no adverse toxicity was observed,–,–,–
CC[C@H](C)[C@H](NC(=O)[C@H](C)NC(=O)[C@H](CCCNC(=N)N)NC(=O)[C@H](CS)NC(=O)[C@H](C)NC(=O)CNC(=O)[C@H](CCC(N)=O)NC(=O)[C@@H](NC(=O)[C@@H](NC(=O)[C@H](CCC(=O)O)NC(=O)[C@@H](NC(=O)[C@@H](NC(=O)[C@@H](N)CCCNC(=N)N)C(C)C)[C@@H](C)CC)C(C)C)C(C)C)C(=O)N[C@@H](CCCNC(=N)N)C(=O)N[C@@H](Cc1c[nH]cn1)C(=O)N[C@H](C(=O)N1CCC[C@H]1C(=O)N[C@@H](CCCNC(=N)N)C(=O)N[C@@H](CCCNC(=N)N)C(=O)N[C@H](C(=O)N[C@@H](CCCNC(=N)N)C(=O)N[C@@H](CCC(N)=O)C(=O)NCC(=O)N[C@@H](CC(C)C)C(=O)N[C@@H](CCC(=O)O)C(=O)N[C@@H](CCCNC(=N)N)C(=O)N[C@H](C(=O)N[C@@H](CC(C)C)C(=O)O)[C@@H](C)CC)[C@@H](C)CC)[C@@H](C)CC [LLP1] (H-RVIEVVQGACRAIRHIPRRIRQGLERIL-OH; N-terminus and C-terminus assumed),–,–,–,–,–,–,–,"equal to, or more potent than magainin-2",≤ 60,near nanomolar affinity
